Data as given in paper PMC4279406, “Simultaneous targeting of PI3Kδ and a PI3Kδ-dependent MEK1/2-Erk1/2 pathway for therapy in pediatric B-cell acute lymphoblastic leukemia” (Oncotarget, 2014).
Read-outs that look alike come from different tables or passages of the source.

Tests used:
[1] = test system: Rh30-Myr-p110δ cells; assay: Akt phosphorylation in isogenic Rh30-Myr-p110 cells (Western blot); assay type: cell-based, human; details: for EC50 / IC50: Homo sapiens; for EC50: Rh30-Myr-p110δ cells; for IC50: serum-free 12 h, compound 1 h, band intensity, mean of three experiments
Description: To assess the selectivity of X-370 in the context of an isogenic cellular background, we generated a panel of Rh30 human rhabdomyosarcoma cell lines each of which stably expresses a single myristoylated (Myr)-epitope tagged p110 human class I PI3K catalytic subunit, termed as Rh30-Myr-p110α, Rh30-Myr-p110β, Rh30-Myr-p110γ or Rh30-Myr-p110δ. In these cells, endogenous PI3K is not activated under serum-free culture conditions, whereas the ectopically expressed p110 isoforms are membrane-anchored and constitutively active due to myristoylation at N-terminal. Utilizing this cell panel, isoform-specific PI3K activity can be determined for any given inhibitor[25]. These cells were treated with X-370 and phosphorylated Akt was detected as the readout of PI3K activity. X-370 inhibited phosphorylation of Akt at both Thr308 and Ser473 in a dose-dependent manner in four tested cell lines (Figure 2A). […] Similar property was also observed in CAL-101 (Figure S2).
Cell lysates were probed with indicated antibodies. The IC50 values were calculated based on relative band intensity measured with ImageQuant™ TL (GE Healthcare Life Sciences, Piscataway, NJ) (B). Data shown are mean values from three independent experiments. (C, D, E, F) X-370 blocked stimuli-triggered PI3Kδ activation. MEF cells and THP-1 were starved in serum-free medium for 12 h or 4 h respectively and X-370 were added for an additional 1 h treatment following stimulation of IGF-1 at 100 ng/ml for MEF cells (C), LPA at 10 μM for MEF cells (D), MCP-1 at 100ng/ml for THP-1 (E) and M-CSF at 50 ng/ml for THP-1 (F). Similar results were derived from 3 independent experiments. TEXT PRINTED IN THE PICTURE: (B) X-370: IC50 (μM) in Rh30-Myr-p110s, Akt pT308, PI3Kα: 0.68; IC50 (μM) in Rh30-Myr-p110s, Akt pT308, PI3Kβ: 0.4; IC50 (μM) in Rh30-Myr-p110s, Akt pT308, PI3Kγ: 0.46; IC50 (μM) in Rh30-Myr-p110s, Akt pT308, PI3Kδ: 0.032; IC50 (μM) in Rh30-Myr-p110s, Akt pS473, PI3Kα: 0.53; IC50 (μM) in Rh30-Myr-p110s, Akt pS473, PI3Kβ: 0.29; IC50 (μM) in Rh30-Myr-p110s, Akt pS473, PI3Kγ: 0.23; IC50 (μM) in Rh30-Myr-p110s, Akt pS473, PI3Kδ: 0.02 DOUBTS OF THE COPYIST ABOUT THIS PICTURE: Panel B prints no substance label in the table itself; the label X-370 is taken from the other panels of the same picture, where it is the only substance printed. […]
Cells were treated as indicated conditions and then subjected to lysate to perform standard Western blot as described previously1. Briefly, whole-cell lysates and SDS-loading buffer diluted cell fractions were analyzed on SDS-PAGE gels. Transfer to nitrocellulose membranes, nonfat milk blocking, probing with indicated primary antibodies and the corresponding HRP-conjugated second antibodies.
Chemiluminescence were performed and captured using ImageQuant LAS 4000 (GE healthcare Life Sciences, Piscataway, NJ, USA) and band intensity was measure both with ImageQuant™ TL (GE Healthcare Life Sciences) 2. […]
(also on this page, place not known: PI3Kδ -dependent MEK1/2 - B -cell previously 1. whole -cell SDS -loading SDS -PAGE HRP -conjugated (G E A B Val828 Trp760 Thr750 Met752 Tyr813 affinity pocket specificity pocket hinge Glu826 CAL-101 X-370) […]
(1 picture or pasted object on this page, not shown here) […]
in serum-free medium for 12 h and then incubated with serially diluted CAL -101 for an additional 1 h.
Cell lysates were probed with indicated antibodies. The IC50 values were calculated based on relative band intensity measured with ImageQuant™ TL (GE Healthcare Life Sciences, Piscataway, NJ). Data shown are mean values from three independent experiments.
Table S1: Inhibitory activity of X-370 against protein kinases […]
kinome at 10 μM. The relative kianse activity left in the presence of 10 μM were shown (Mi llipore […]
Kinase activity (% of control) Kinase activity (% of control) Kinase activity (% of control) […]
CDK1/cyclinB 97 Lck activated 89 Ret 125 […]

[2] = test system: primary B-ALL cells; assay: Phosphorylated Akt and Erk1/2 in primary B-ALL cells (Western blot); assay type: cell-based, human; details: 72 h
Experimental: Figure 6 X-370-sensitive human primary B-ALL cells contained PI3K-dependent Erk1/2 phosphorylation and combination of AZD6244 and X-370 enhanced inhibitory activity against resistant specimens (A) X-370-sensitive human primary B-ALL cells contained PI3K-dependent Erk1/2 phosphorylation. Primary B-ALL cells were treated with series diluted X-370 for 72 h. Phosphorylation of Akt and Erk1/2 were detected. (B). Combination of AZD6244 and X-370 enhanced inhibitory activity against resistant specimens. X-370 resistant primary B-ALL cells were treated with 1 μM X-370 alone or cocurently with MEK1/2 inhibitor AZD6244 (1 μM) for 72 h and cell viability were tested by CCK-8 assay. Cell viability of each treated group was compared with unpaired t-tests. *: P < 0.05. (C) X-370-resistant primary B-ALL cells were treated with X-370 in the presence of 1 μM AZD6244 or not for 72 h and phosphorylated Akt and Erk1/2 were then detected by Western blot.
Bone marrow was obtained from patients after provision of informed consent using guidelines approved by the Committee on the Use of Human Subjects in Research at Shanghai Jiaotong University or Shanghai Fudan University under a protocol approved by the Review Board. […] Cell viability and phosphorylated Akt and Erk1/2 were then detected.

## O=C(N1CCCC1)N1CCC(n2cnc3c(-n4c(C(F)F)nc5ccccc54)nc(N4CCOCC4)nc32)CC1 [X-370]
[1]; Akt pT308 and pS473
  fold lower EC50 in Rh30-Myr-p110δ than in isogenic Rh30-Myr-p110α/β/γ cells: at least 10 fold
[1]; read-out: EC50, Akt phosphorylation (Akt pS473)
  EC50: 20 nM
[1]; read-out: EC50, Akt phosphorylation (Akt pT308)
  EC50: 32 nM
[1]; read-out: IC50 (μM) in Rh30-Myr-p110s, Akt pS473, PI3Kδ
  IC50: 0.02 µM
[1]; read-out: IC50 (μM) in Rh30-Myr-p110s, Akt pT308, PI3Kδ
  IC50: 0.032 µM
[2]; resistant (IC50>1 μM) samples
  phosphorylated Erk1/2: remained unaffected
[2]; sensitive (IC50<1 μM) specimens, < 1 μM
  phosphorylated Akt and Erk1/2: dramatically decreased
